Results as given in patent US5091522A, “Retinoic esters of D-desosamine, process for their preparation and their use in human or veterinary medicine and in cosmetic compositions” (L'Oreal, priority 1989, dated 1992).
In brackets after ≈: the same amount, converted by molar mass. Read-outs that look alike come from different tables or passages of the source.

Key:
Assay type in all cases: cell-based
[1] = system: Propionibacterium acnes P37; assay: Minimum inhibiting concentration (MIC) by dilution method, P. acnes strain P37
Source text: (§1) The activity of retinoic esters of D-desosamines has been studied by the dilution method to determine the minimum inhibiting concentration (MIC). This method is described and employed by G. A. Denys et al, Antimicrobial Agents and Chemotherapy (1983) 23, 335-337 and J. J. Leyden et al, J.Am.Acad. Dermatol. (1983) 8 (1) 41-5, by using as the Propionibacterium acnes strain, strain P37 furnished by Cunliffe and Holland.
(§2) The minimum concentration (MIC), expressed in μg/ml of the retinoic esters of D-desosamine tested vis-a-vis strains of Propionibacterium acnes P37, P37 E⊕ and P37 E⊖ and staphilococcus epidermis ATCC 12228, is reported in the following table: […]

[2] = system: Propionibacterium acnes P37 E⊕; assay: Minimum inhibiting concentration (MIC) by dilution method, P. acnes P37 E⊕ (erythromycin-sensitive population); settings: Cutibacterium acnes
Source text: as §1
(§3) On the other hand, after 8 successive sub-cultures in the same medium (RCM* 19/20, DMSO 1/20 by volume) with the view of obtaining a progressive stabilization of this strain in this medium, a progressive resistance to erythromycin was manifested in the following form:
(§4) after spreading a standardized inoculum (DO=1.8 at 450 nm) on a gelose medium (RCM+furazolidone), in a Petri dish, a 9 mm diameter disc is deposited at its center. On the disc, 50 μg of erythromycin (in solution in DMSO) are deposited.
(§5) The two types of colonies are then retained by stripping of the gelose medium (sterilized platinum loop):
(2) at 1 cm beyond the periphery of the inhibition zone, there are stripped off strains called P37 E⊕.
(§6) After isolation and culturing, the P37 E⊕ and P37 E⊖ strains effectively show very different sensitivities to erythromycin as illustrated by the following MIC values:
as §2

[3] = system: Propionibacterium acnes P37 E⊖; assay: Minimum inhibiting concentration (MIC) by dilution method, P. acnes P37 E⊖ (erythromycin-resistant population); settings: Cutibacterium acnes, P37E.CRCLBAR.
Source text: as §1, §3, §4, §5
(1) at the interior of the inhibition zone there are stripped off strains, called P37 E⊖ by reason of their apparent resistance to erythromycin.
as §6, §2

[4] = system: staphilococcus epidermis ATCC 12228; assay: Minimum inhibiting concentration (MIC) by dilution method, staphilococcus epidermis ATCC 12228; settings: read-out: minimum concentration (MIC), TABLE I
Source text: as §1, §2

[5] = system: Propionibacterium acnes P37; assay: IC 50 (50% survivors among the population at constant culturing time), P37; settings: Cutibacterium acnes, P37, read-out: IC 50 (inhibiting concentration at 50%)
Source text: (§7) This phenomenon is confirmed by the study of the IC 50 (inhibiting concentration at 50% which represents the concentration of erythromycin where, at a constant culturing time, 50% survivors among the population are found

[6] = system: Propionibacterium acnes P37 E⊕; assay: IC 50 (50% survivors among the population at constant culturing time), P37 E⊕; settings: Cutibacterium acnes, read-out: IC 50 (inhibiting concentration at 50%)
Source text: as §7

[7] = system: Propionibacterium acnes P37 E⊖; assay: IC 50 (50% survivors among the population at constant culturing time), P37 E⊖; settings: Cutibacterium acnes, P37E.CRCLBAR., read-out: IC 50 (inhibiting concentration at 50%)
Source text: as §7

[8] = system: Propionibacterium acnes strain P37; assay: Disc inhibition zone on gelose medium; settings: Cutibacterium acnes, P37, 144 h; 50 μg erythromycin on 9 mm disc; 6 days at 36 C, anaerobic; RCM+furazolidone; after 8 sub-cultures; read-out: inhibition zone of the growth of the strain (total diameter)
Description: as §3, §4
After 6 days at 36.C in an anaerobic medium (GAS-PAK, B.B.L. system) an inhibition zone of the growth of the strain is clearly visible (total diameter =42 mm), the majority of the colonies being situated at the periphery of the inhibition zone.

[9] = Cutibacterium acnes, P37; read-out: minimum concentration (MIC), TABLE I
[10] = P37E.SYM., P37 E⊕, read-out: minimum concentration (MIC), TABLE I
[11] = read-out: minimum concentration (MIC), TABLE I
[12] = Cutibacterium acnes, P37, read-out: minimum concentration (MIC), TABLE I

`CCCCO[C@H]1O[C@H](C)C[C@H](N(C)C)[C@H]1OC(=O)/C=C(C)/C=C/C=C(C)/C=C/c1c(C)cc(OC)c(C)c1C` [Compound 6, O-etretinoyl (all trans)-2-O-butyl-1-α-D-desosamine] gave an MIC [1, 9] of 19 µg/mL (≈ 35.2 µM), an MIC [2, 10] of 4.3 µg/mL (≈ 7.97 µM) and an MIC [3, 11] of 2.1 µg/mL (≈ 3.89 µM). It also gave an MIC ([4]; ATCC 12228) of 1.5 µg/mL (≈ 2.78 µM).

In the case of `CCCCOC1O[C@H](C)C[C@H](N(C)C)[C@H]1OC(=O)/C=C(C)/C=C/C=C(C)/C=C/C1=C(C)CCCC1(C)C` (stereo partly drawn) [Compound 2, O-retinoyl (all trans)-2-O-butyl-1-α-β-D-desosamine], the MIC [1, 9] is reported as 15 µg/mL (≈ 29.2 µM), the MIC [2, 10] is reported as 25 µg/mL (≈ 48.7 µM) and the MIC [3, 11] is reported as 9 µg/mL (≈ 17.5 µM). The MIC ([4]; ATCC 12228) was 3.5 µg/mL (≈ 6.81 µM).

For `C[C@@H]1C[C@H](N(C)C)[C@@H](O)C(O)O1` (stereo partly drawn) [α,β-D-desosamine, reference compound], the MIC [1, 12] was greater than 50 µg/mL, the MIC [2, 11] was greater than 70 µg/mL and the MIC [3, 11] was greater than 70 µg/mL. The MIC [4] was greater than 50 µg/mL.

With `CCCCO[C@@H]1O[C@H](C)C[C@H](N(C)C)[C@H]1OC(=O)/C=C(C)/C=C/C=C(C)/C=C/c1c(C)cc(OC)c(C)c1C` [Compound 7, O-etretinoyl (all trans)-2-O-butyl-1-β-D-desosamine] the MIC [1, 9] was 5.2 µg/mL (≈ 9.63 µM), the MIC [2, 10] was 40 µg/mL (≈ 74.1 µM) and the MIC [3, 11] was 14.5 µg/mL (≈ 26.9 µM). For the same compound, the MIC ([4]; ATCC 12228) was 2.3 µg/mL (≈ 4.26 µM).

In the case of `CC[C@H]1OC(=O)[C@H](C)[C@@H](O[C@H]2C[C@@](C)(OC)[C@@H](O)[C@H](C)O2)[C@H](C)[C@@H](O[C@@H]2O[C@H](C)C[C@H](N(C)C)[C@H]2O)[C@](C)(O)C[C@@H](C)C(=O)[C@H](C)[C@@H](O)[C@]1(C)O` [erythromycin], the MIC ([1]; Cutibacterium acnes, P37) is reported as 0.78 µg/mL (≈ 1.06 µM), the MIC [2] is reported as 0.78 µg/mL (≈ 1.06 µM) and the MIC [3] is reported as 50 µg/mL (≈ 68.1 µM). The IC50 [5] was 50 µg/mL (≈ 68.1 µM), the IC50 [6] was 5 µg/mL (≈ 6.81 µM) and the IC50 [7] was 100 µg/mL (≈ 136 µM). The zone of inhibition at 50 µg/disc [8] was 42 mm.

Work on `CCCCOC1O[C@H](C)C[C@H](N(C)C)[C@H]1OC(=O)/C=C(C)/C=C/C=C(C)/C=C/c1c(C)cc(OC)c(C)c1C` (stereo partly drawn) [Compound 5, O-etretinoyl (all trans)-2-O-butyl-1-α,β-D-desosamine] yielded an MIC [1, 9] of 3 µg/mL (≈ 5.56 µM), an MIC [2, 10] of 6 µg/mL (≈ 11.1 µM) and an MIC [3, 11] of 6 µg/mL (≈ 11.1 µM). The MIC ([4]; ATCC 12228) was 6 µg/mL (≈ 11.1 µM).

In the case of `CCCCOC1O[C@H](C)C[C@H](N(C)C)[C@H]1OC(=O)\C=C(C)/C=C/C=C(C)/C=C/C1=C(C)CCCC1(C)C` (stereo partly drawn) [Compound 1, O-retinoyl (13 cis)-2-O-butyl-1-α,β-D-desosamine], the MIC [1, 12] is reported as 10.5 µg/mL (≈ 20.4 µM), the MIC [2, 10] is reported as 21 µg/mL (≈ 40.9 µM) and the MIC [3, 11] is reported as 10.5 µg/mL (≈ 20.4 µM). It also gave an MIC ([4]; ATCC 12228) of 18.5 µg/mL (≈ 36 µM).

Compound `CO[C@H]1O[C@H](COC(=O)\C=C(C)/C=C/C=C(C)/C=C/C2=C(C)CCCC2(C)C)[C@@H](O)[C@H](O)[C@H]1O` [O-retinoyl (13 cis)-6-O-methyl-1-α-D-glucopyrannose, reference compound] has an MIC [1, 9] greater than 45 µg/mL, an MIC [2, 10] greater than 45 µg/mL and an MIC [3, 11] greater than 45 µg/mL. It also gave an MIC ([4]; ATCC 12228) greater than 45 µg/mL.

Work on `CCCCOC1O[C@H](C)C[C@H](N(C)C)[C@H]1O` (stereo partly drawn) [O-butyl-1-α,β-D-desosamine, reference compound] yielded an MIC [1, 9] greater than 100 µg/mL, an MIC [2, 10] greater than 100 µg/mL and an MIC [3, 11] greater than 110 µg/mL. For the same compound, the MIC ([4]; ATCC 12228) was greater than 100 µg/mL.
